In PubChem BioAssay AID248 (DTP/NCI, 2004):
Where “and” joins values, the source holds several entries; their conditions need not be identical. Equal values may be shown once. Inconclusive results and toxic doses are left out. Cut-off read from the data, not from the text of the source: active = T/C of 150% or more; inactive = T/C below 125%.

System: L1210 leukemia ip in BDF1 mice, survival T/C
Assay: NCI In Vivo Anticancer Drug Screen. Data for tumor model L1210 Leukemia (intraperitoneal) in B6D2F1 (BDF1) mice
Settings: higher = longer survival
In short: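 Transplantable tumor model; survival measured in treated vs vehicle control mice. Value = treated/control.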

[1] = endpoint: mean survival time, dose: 100.0 mg/kg/injection, schedule: Q01DX009 (ip), vehicle: saline with Tween-80
[2] = endpoint: mean survival time, dose: 200.0 mg/kg/injection, schedule: Q01DX009 (ip), vehicle: saline with Tween-80
[3] = endpoint: mean survival time, dose: 400.0 mg/kg/injection, schedule: Q01DX009 (ip), vehicle: saline with Tween-80
[4] = endpoint: mean survival time, dose: 100.0 mg/kg/injection, schedule: Q01DX001 (ip), vehicle: saline
[5] = endpoint: mean survival time, dose: 200.0 mg/kg/injection, schedule: Q01DX001 (ip), vehicle: saline
[6] = endpoint: mean survival time, dose: 400.0 mg/kg/injection, schedule: Q01DX001 (ip), vehicle: saline
[7] = endpoint: mean survival time, dose: 100.0 mg/kg/injection, schedule: Q01DX009 (ip), vehicle: Klucel (hydroxypropylcellulose) (HPC)
[8] = endpoint: mean survival time, dose: 100.0 mg/kg/injection, schedule: Q04DX003 (ip), vehicle: Klucel (hydroxypropylcellulose) (HPC)
[9] = endpoint: mean survival time, dose: 200.0 mg/kg/injection, schedule: Q01DX009 (ip), vehicle: Klucel (hydroxypropylcellulose) (HPC)
[10] = endpoint: mean survival time, dose: 200.0 mg/kg/injection, schedule: Q04DX003 (ip), vehicle: Klucel (hydroxypropylcellulose) (HPC)
[11] = endpoint: mean survival time, dose: 400.0 mg/kg/injection, schedule: Q01DX009 (ip), vehicle: Klucel (hydroxypropylcellulose) (HPC)
[12] = endpoint: mean survival time, dose: 400.0 mg/kg/injection, schedule: Q04DX003 (ip), vehicle: Klucel (hydroxypropylcellulose) (HPC)
[13] = endpoint: mean survival time, dose: 100.0 mg/kg/injection, schedule: Q04DX003 (ip), vehicle: saline
[14] = endpoint: mean survival time, dose: 200.0 mg/kg/injection, schedule: Q04DX003 (ip), vehicle: saline

Measured: T/C

O=C1CC2OCC=C3CN4CCC56c7ccccc7N1C5C2C3CC46 (stereo unspecified) (tested in a mixture with another compound)
inactive: endpoint: mean survival time, dose: 0.12 mg/kg/injection, schedule: Q04DX003 (ip), vehicle: saline + Tween-80 + alkali 102 % of control | endpoint: mean survival time, dose: 0.12 mg/kg/injection, schedule: Q04DX003 (ip), vehicle: saline 104 % of control | endpoint: mean survival time, dose: 0.19 mg/kg/injection, schedule: Q04DX003 (ip), vehicle: alcohol 106 % of control | endpoint: mean survival time, dose: 0.19 mg/kg/injection, schedule: Q04DX003 (ip), vehicle: saline + Tween-80 + alkali 100 % of control | endpoint: mean survival time, dose: 0.19 mg/kg/injection, schedule: Q04DX003 (ip), vehicle: saline 104 % of control | endpoint: mean survival time, dose: 0.25 mg/kg/injection, schedule: Q04DX003 (ip), vehicle: Klucel (hydroxypropylcellulose) (HPC) 101 % of control | endpoint: mean survival time, dose: 0.28 mg/kg/injection, schedule: Q04DX003 (ip), vehicle: saline + Tween-80 + alkali 98 % of control | endpoint: mean survival time, dose: 0.28 mg/kg/injection, schedule: Q04DX003 (ip), vehicle: saline 104 % of control | endpoint: mean survival time, dose: 0.39 mg/kg/injection, schedule: Q01DX009 (ip), vehicle: saline 98 % of control and 95 % of control | endpoint: mean survival time, dose: 0.39 mg/kg/injection, schedule: Q04DX003 (ip), vehicle: alcohol 103 % of control | endpoint: mean survival time, dose: 0.5 mg/kg/injection, schedule: Q04DX003 (ip), vehicle: Klucel (hydroxypropylcellulose) (HPC) 93 % of control | endpoint: mean survival time, dose: 0.75 mg/kg/injection, schedule: Q01DX009 (ip), vehicle: Klucel (hydroxypropylcellulose) (HPC) 92 % of control | endpoint: mean survival time, dose: 0.78 mg/kg/injection, schedule: Q01DX009 (ip), vehicle: saline 101 % of control and 110 % of control | endpoint: mean survival time, dose: 0.78 mg/kg/injection, schedule: Q04DX003 (ip), vehicle: alcohol 103 % of control | endpoint: mean survival time, dose: 0.78 mg/kg/injection, schedule: Q04DX003 (ip), vehicle: saline + alcohol 102 % of control | endpoint: mean survival time, dose: 0.78 mg/kg/injection, schedule: Q04DX003 (ip), vehicle: saline 100 % of control | endpoint: mean survival time, dose: 1.0 mg/kg/injection, schedule: Q04DX003 (ip), vehicle: Klucel (hydroxypropylcellulose) (HPC) 101 % of control | endpoint: mean survival time, dose: 1.5 mg/kg/injection, schedule: Q01DX009 (ip), vehicle: Klucel (hydroxypropylcellulose) (HPC) 97 % of control | endpoint: mean survival time, dose: 1.5 mg/kg/injection, schedule: Q04DX003 (ip), vehicle: Klucel (hydroxypropylcellulose) (HPC) 100 % of control | endpoint: mean survival time, dose: 1.56 mg/kg/injection, schedule: Q01DX009 (ip), vehicle: saline 90 % of control and 100 % of control | endpoint: mean survival time, dose: 1.56 mg/kg/injection, schedule: Q04DX003 (ip), vehicle: alcohol 93 % of control | endpoint: mean survival time, dose: 1.56 mg/kg/injection, schedule: Q04DX003 (ip), vehicle: saline + alcohol 93 % of control | endpoint: mean survival time, dose: 1.56 mg/kg/injection, schedule: Q04DX003 (ip), vehicle: saline 93 % of control | endpoint: mean survival time, dose: 6.0 mg/kg/injection, schedule: Q04DX003 (ip), vehicle: Klucel (hydroxypropylcellulose) (HPC) 110 % of control

CCOC(=O)C(Cc1ccccc1Cl)(Cc1ccccc1Cl)c1ccccc1
inactive: [1] 92 % of control | [2] 90 % of control | [3] 90 % of control

Cc1cccc(C=O)c1
inactive: [4] 102 % of control | [5] 96 % of control | [6] 96 % of control

CCCCCOc1ccc(C(=O)CC(=O)OCC)cc1
inactive: [7] 98 % of control | [8] 93 % of control | [9] 104 % of control | [10] 95 % of control | [11] 93 % of control | [12] 93 % of control

CS(=O)(=O)Oc1c(Cl)cc(Cl)c2ccccc12
inactive: [4] 98 % of control | [5] 92 % of control | [6] 101 % of control

O=[N+]([O-])c1cccc(-c2ccccc2)c1Br
inactive: [1] 94 % of control | [8] 93 % of control | [2] 93 % of control | [10] 96 % of control | [3] 94 % of control | [12] 94 % of control

CCOC(=O)CC(=O)NCCc1cccc(OC)c1OC
inactive: [13] 93 % of control | [14] 90 % of control | endpoint: mean survival time, dose: 400.0 mg/kg/injection, schedule: Q04DX003 (ip), vehicle: saline 93 % of control

CCC(=O)n1c(=O)n(C2CCN(CCCS(=O)(=O)c3ccccc3)CC2)c2ccccc21
inactive: endpoint: mean survival time, dose: 50.0 mg/kg/injection, schedule: Q01DX001 (ip), vehicle: Klucel (hydroxypropylcellulose) (HPC) 95 % of control | endpoint: mean survival time, dose: 100.0 mg/kg/injection, schedule: Q01DX001 (ip), vehicle: Klucel (hydroxypropylcellulose) (HPC) 95 % of control | endpoint: mean survival time, dose: 200.0 mg/kg/injection, schedule: Q01DX001 (ip), vehicle: Klucel (hydroxypropylcellulose) (HPC) 100 % of control

Cc1nc2nc(N)nc(N)c2nc1CNc1ccc(C(=O)NC(CCC(=O)O)C(=O)O)cc1 (stereo unspecified)
inactive: endpoint: median survival time, dose: 0.39 mg/kg/injection, schedule: Q01DX009 (ip), vehicle: other 100 % of control | endpoint: median survival time, dose: 0.65 mg/kg/injection, schedule: Q01DX009 (ip), vehicle: other 100 % of control | endpoint: median survival time, dose: 1.08 mg/kg/injection, schedule: Q01DX009 (ip), vehicle: other 100 % of control | endpoint: median survival time, dose: 1.8 mg/kg/injection, schedule: Q01DX009 (ip), vehicle: other 100 % of control | endpoint: median survival time, dose: 5.0 mg/kg/injection, schedule: Q01DX009 (ip), vehicle: other 100 % of control | endpoint: median survival time, dose: 14.0 mg/kg/injection, schedule: Q01DX009 (ip), vehicle: other 110 % of control | endpoint: median survival time, dose: 108.0 mg/kg/injection, schedule: Q01DX009 (ip), vehicle: other 100 % of control | endpoint: median survival time, dose: 180.0 mg/kg/injection, schedule: Q01DX009 (ip), vehicle: other 105 % of control | endpoint: median survival time, dose: 300.0 mg/kg/injection, schedule: Q01DX009 (ip), vehicle: other 105 % of control

C/C(=N\N=C(N)N)c1ccccc1
inactive: endpoint: mean survival time, dose: 15.0 mg/kg/injection, schedule: Q01DX Z (oral), vehicle: carboxymethylcellulose (CMC) 102 % of control | endpoint: mean survival time, dose: 30.0 mg/kg/injection, schedule: Q01DX Z (oral), vehicle: carboxymethylcellulose (CMC) 97 % of control

CC(=O)Nc1ncnn1C(C)=O
inactive: endpoint: mean survival time, dose: 50.0 mg/kg/injection, schedule: Q01DX009 (ip), vehicle: saline 97 % of control | endpoint: mean survival time, dose: 100.0 mg/kg/injection, schedule: Q01DX009 (ip), vehicle: saline 96 % of control | [13] 98 % of control | endpoint: mean survival time, dose: 200.0 mg/kg/injection, schedule: Q01DX009 (ip), vehicle: saline 97 % of control | [14] 95 % of control

CCCC1C(=O)N2C(N(C)C)=Nc3ccc(C)cc3N2C1=O (stereo unspecified)
inactive: endpoint: mean survival time, dose: 50.0 mg/kg/injection, schedule: Q01DX009 (ip), vehicle: carboxymethylcellulose (CMC) 101 % of control | [4] 110 % of control | endpoint: mean survival time, dose: 100.0 mg/kg/injection, schedule: Q01DX009 (ip), vehicle: carboxymethylcellulose (CMC) 101 % of control | [5] 98 % of control | endpoint: mean survival time, dose: 200.0 mg/kg/injection, schedule: Q01DX009 (ip), vehicle: carboxymethylcellulose (CMC) 101 % of control | [6] 93 % of control | endpoint: mean survival time, dose: 400.0 mg/kg/injection, schedule: Q01DX009 (ip), vehicle: carboxymethylcellulose (CMC) 92 % of control

Cc1cnc(SCc2ccc(Cl)cc2)nc1N(Cc1ccccc1)Cc1ccccc1
inactive: endpoint: mean survival time, dose: 100.0 mg/kg/injection, schedule: Q01DX Z (ip), vehicle: methylcellulose (MC) 87 % of control

O=C1NC(=O)C(c2ccccc2)(C2CCC2)N1 (stereo unspecified)
inactive: [1] 93 % of control | [2] 103 % of control | [3] 95 % of control

CCS(=O)(=O)/C=C/c1ccncc1
inactive: endpoint: mean survival time, dose: 25.0 mg/kg/injection, schedule: Q04DX002 (ip), vehicle: saline 104 % of control | endpoint: mean survival time, dose: 50.0 mg/kg/injection, schedule: Q04DX002 (ip), vehicle: saline 101 % of control | endpoint: mean survival time, dose: 100.0 mg/kg/injection, schedule: Q04DX002 (ip), vehicle: saline 111 % of control and 113 % of control

COc1ccc(C(OC2OC(n3cnc4c(=S)nc(N)[nH]c43)CC2OC(C)=O)(c2ccccc2)c2ccc(OC)cc2)cc1 (stereo unspecified)
inactive: [7] 97 % of control | [8] 101 % of control | [9] 97 % of control | [10] 97 % of control | [11] 95 % of control | [12] 97 % of control

CCNC(=O)c1cc(NC(=O)Nc2ccc(C3=NCCN3)cc2)cc(NC(=O)Nc2ccc(C3=NCCN3)cc2)c1
inactive: endpoint: mean survival time, dose: 62.0 mg/kg/injection, schedule: Q01DX Z (ip), vehicle: carboxymethylcellulose (CMC) 102 % of control | endpoint: mean survival time, dose: 125.0 mg/kg/injection, schedule: Q01DX Z (ip), vehicle: carboxymethylcellulose (CMC) 103 % of control | endpoint: mean survival time, dose: 250.0 mg/kg/injection, schedule: Q01DX Z (ip), vehicle: carboxymethylcellulose (CMC) 107 % of control | endpoint: mean survival time, dose: 500.0 mg/kg/injection, schedule: Q01DX Z (ip), vehicle: carboxymethylcellulose (CMC) 102 % of control
